The record followed here is US12225917B2 (priority 2017, dated 2025).

Like-named read-outs stand apart in the source and are kept apart here.

One assay has as its system Clostridium Difficile. The assay is described as follows: In vitro MIC and MBC against Clostridium difficile (Example 6). It is filed as cell-based.
Assay [1] deals with Clostridium Perfringens (type A strain EHE-NE36). The following applies: NE challenged broilers; for median lesion scores: relative to nil-treatment; for small intestinal lesion scores: relative to nil treatment groups.
Assay [2] can be described thus: Feed palatability, feed and water consumption and bird productivity study (Example 2): feed intake, water intake, bodyweight, FCR. Type of assay: in vivo, broiler chickens. The text has this: A follow-up study to determine the feed palatability, feed and water consumption and bird productivity following incorporation of a single formulation of IRP001 hemisulfate salt (unmasked) when offered to broiler chickens in-feed or in-water. The study explores the optimal treatment regime in terms of treatment start date.
Phase 1: On receipt, two hundred and seventy (270) day-old commercial broiler chickens were allocated sequentially as they are received into sixteen (16) individual floor pens, each of 16 or 17 birds, on Day 0.
Phase 2: On receipt, the ninety (90) day-old commercial broiler chickens were allocated sequentially as they are received into four (4) individual floor pens, each of 22 or 23 birds, on Day 22.
Feed intake, water intake, weight gain and mortality were used as outcome parameters.
Individual daily feed intake and individual daily water intake data by pen and then by treatment group were calculated for Phases 1 and 2 (and for the entire trial for the birds in Group/Pen 2, 15 and 16 that continue through both Phases) using figures for total feed and water provided each day to each pen divided by the number of birds in each pen. Where errors in weighing, feeding/watering or recording (or other unexplained losses of feed and water) had occurred means were adjusted by using the mean value for the same pen on the 1-2 days either side of the apparent error. Similarly, group mean bodyweights were calculated for Phase 1 using total weight/total no. birds for Day 0 and individual weights from Days 7, 14, 21, 28, 35 and 42. Total (individual) feed consumed was calculated per treatment and feed conversion ratios per treatment calculated using the expression: total (individual) feed/total (individual) weight gain. […]

On to `CN[C@H](CC(C)C)C(=O)N[C@H]1C(=O)N[C@@H](CC(N)=O)C(=O)N[C@H]2C(=O)N[C@H]3C(=O)N[C@H](C(=O)N[C@H](C(=O)O)c4cc(O)cc(O)c4-c4cc3ccc4O)[C@H](O)c3ccc(c(Cl)c3)Oc3cc2cc(c3O[C@@H]2O[C@H](CO)[C@@H](O)[C@H](O)[C@H]2O[C@H]2C[C@](C)(N)[C@H](O)[C@H](C)O2)Oc2ccc(cc2Cl)[C@H]1O` [Vancomycin, reference compound], for which the MIC entry against Clostridium Difficile and with Clostridium Perfringens was “within the expected range” each time.
berberine hemisulfate [IRP001 sulfate]: the median lesion scores entry in assay [1] (0.1 g/L in-water) and in assay [1] (0.2 g/kg in-feed) was “no reduction in median lesion scores” throughout. The “Mortalities prior to autopsy” value in assay [1] (0.1 g/L in-water, versus nil-treatment) is given as “not significantly different”; in assay [1] (0.2 g/kg in-feed, versus nil-treatment), “not significantly different”; in assay [1] (1.0 g/L in-water, relative to nil-treatment and low-dose groups), “significant reduction in mortalities”; in assay [1] (2.0 g/kg in-feed, relative to nil-treatment and low-dose groups), “significant reduction in mortalities”. The “small intestinal lesion scores” value in assay [1] (1.0 g/L in-water) and in assay [1] (2.0 g/kg in-feed) was “substantial reduction in small intestinal lesion scores” throughout. In addition, the bodyweight entry in assay [2] (Phase 1+2, Pen 2 untreated vs 15/16 treated in-water Day 6-42, pair-wise comparison p<0.05) is listed as “no significant difference”; in assay [2] (Phase 1, unmasked treatment via drinking water (1.0 g per L) over varying periods), “did not appear to affect”; in assay [2] (Phase 2, treatment in-feed (2.0 g per kg of feed)), “did not appear to affect”. Moreover, in the assay with Clostridium Perfringens (Necrotic Enteritis strain of C. perfringens, 62.5 μg/ml), the “inhibition of growth at 62.5 μg/ml” value is reported as “partial inhibition of growth”. Further, the MIC in the assay with Clostridium Perfringens (Necrotic Enteritis strain of C. perfringens, test agent Berberine sulfate, purity 98.0%) was determined as 125 µg/mL.

The MIC is the lowest concentration found to suppress growth. Low values mean a more susceptible organism, high ones a less susceptible organism.
